For series [1], the system named is Frankliniella occidentalis (Western Flower Thrips). Description: Example B4: Frankliniella occidentalis feeding/contact activity, sunflower leaf discs. It is filed as in vivo. Conditions: foliar, 168 h, application rate of 200 ppm, mixed ages, 7 days after infestation. The method, then:
Sunflower leaf discs were placed on agar in 24-well microtiter plates and sprayed with aqueous test solutions prepared from 10,000 DMSO stock solutions. After drying the leaf discs were infested with a Frankliniella population of mixed ages. The samples were assessed for mortality 7 days after infestation.

For series [2], the system named is Thrips tabaci (Onion Thrips). The series is described as follows: Example B11: Thrips tabaci feeding/contact activity, sunflower leaf discs. The settings on record: foliar, 144 h, application rate of 200 ppm, mixed ages, 6 days after infestation. The class given is in vivo. The method, then: Sunflower leaf discs were placed on agar in 24-well microtiter plates and sprayed with aqueous test solutions prepared from 10,000 ppm DMSO stock solutions. After drying the leaf discs were infested with a thrips population of mixed ages. The samples were assessed for mortality 6 days after infestation.

For series [3], the system named is Diabrotica Balteata (Corn Root Worm). Description: Example B2: Diabrotica balteata, maize sprouts, L2 larvae. The class given is in vivo. The settings on record: Diabrotica balteata, 96 h, application rate of 200 ppm; L2 larvae; 4 days after infestation; read-out: effect in at least one of the two categories (mortality or growth inhibition). As for the experimental part:
Maize sprouts placed onto an agar layer in 24-well microtiter plates were treated with aqueous test solutions prepared from 10,000 ppm DMSO stock solutions by spraying. After drying, the plates were infested with L2 larvae (6 to 10 per well). The samples were assessed for mortality and growth inhibition in comparison to untreated samples 4 days after infestation.

The next series has as its system Melodoigyne incognita. The series is described as follows: Example B14: Melodoigyne incognita juvenile mobility, in vitro profiling in 96 well plate. The class given is in vivo. The settings on record: 200 ppm; after 24 h; second stage juveniles; read-out: control (juvenile mobility). In a few lines:
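Second-stage juveniles (100–150 per well, freshly harvested) were exposed in triplicate to test solutions prepared at 1000, 200, 100, 50, 25 and 12.5 ppm before nematode suspension was added. Plates were kept 24 h at room temperature in the dark. Juvenile mobility was measured by imaging and compared with 12 untreated replicates.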

The subject of series [4] is Bemisia tabaci (Cotton White Fly). The series is described as follows: Example B1: Bemisia tabaci feeding/contact activity, cotton leaf discs. The settings on record: foliar, 144 h, application rate of 200 ppm, adult white flies, 6 days after incubation. It is filed as in vivo. The method, then:
Cotton leaf discs were placed on agar in 24-well microtiter plates and sprayed with aqueous test solutions prepared from 10,000 ppm DMSO stock solutions. After drying the leaf discs were infested with adult white flies. The samples were checked for mortality 6 days after incubation.

Series [5] deals with Myzus persicae (Green peach aphid). Description: Example B5: Myzus persicae feeding/contact activity, sunflower leaf discs. It is filed as in vivo. The settings on record: foliar; for mortality at 200 ppm: Myzus persicae, 144 h, application rate of 200 ppm, mixed ages, 6 days after infestation, read-out: mortality; for mortality at 12.5 ppm: Concentration 12.5 ppm, Myzus persicae (feeding/contact, Example B5), read-out: Mortality (%). As for the experimental part:
Sunflower leaf discs were placed onto agar in a 24-well microtiter plate and sprayed with aqueous test solutions prepared from 10,000 ppm DMSO stock solutions. After drying, the leaf discs were infested with an aphid population of mixed ages. The samples were assessed for mortality 6 days after infestation.

Series [6] deals with Euschistus heros (Neotropical Brown Stink Bug). Description: Example B3: Euschistus heros, soybean leaves, N2 nymphs. It is filed as in vivo. Conditions: for percent effect (mortality or growth inhibition) at 200 ppm: Euschistus heros, 120 h, application rate of 200 ppm, N2 nymphs, 5 days after infestation, read-out: effect in at least one of the two categories (mortality or growth inhibition); for mortality at 50 ppm: Concentration 50 ppm, Euschistus heros (Example B3), read-out: Mortality (%). As for the experimental part:
Soybean leaves on agar in 24-well microtiter plates were sprayed with aqueous test solutions prepared from 10,000 ppm DMSO stock solutions. After drying the leaves were infested with N2 nymphs. The samples were assessed for mortality and growth inhibition in comparison to untreated samples 5 days after infestation.

Series [7] relates to Myzus persicae (Green peach aphid). Description: Example B6: Myzus persicae systemic activity, pea seedlings. The class given is in vivo. Conditions: for mortality at 24 ppm: Myzus persicae, 144 h, test rate of 24 ppm, mixed ages, 6 days after placing seedlings into test solutions, read-out: mortality; for mortality at 1.5 ppm: Concentration 1.5 ppm, Myzus persicae (systemic, Example B6), read-out: Mortality (%). The method, then: Roots of pea seedlings infested with an aphid population of mixed ages were placed directly into aqueous test solutions prepared from 10,000 DMSO stock solutions. The samples were assessed for mortality 6 days after placing seedlings into test solutions.

The test system of series [8] is Plutella xylostella (Diamond Back Moth). The series is described as follows: Example B7: Plutella xylostella, artificial diet, L2 larvae. It is filed as in vivo. Conditions: 120 h, application rate of 200 ppm, L2 larvae, 5 days after infestation, read-out: effect in at least one of the two categories (mortality or growth inhibition). As for the experimental part: 24-well microtiter plates with artificial diet were treated with aqueous test solutions prepared from 10,000 ppm DMSO stock solutions by pipetting. After drying, the plates were infested with L2 larvae (10 to 15 per well). The samples were assessed for mortality and growth inhibition in comparison to untreated samples 5 days after infestation.

Series [9] relates to Spodoptera littoralis (Egyptian Cotton Leaf Worm). The series is described as follows: Example B9: Spodoptera littoralis, cotton leaf discs (mortality, anti-feeding, growth inhibition). It is filed as in vivo. The settings on record: foliar, 72 h, application rate of 200 ppm, L1 larvae, 3 days after infestation, read-out: control (mortality, anti-feeding effect or growth inhibition). As for the experimental part: Cotton leaf discs were placed onto agar in 24-well microtiter plates and sprayed with aqueous test solutions prepared from 10,000 ppm DMSO stock solutions. After drying the leaf discs were infested with five L1 larvae. The samples were assessed for mortality, anti-feeding effect, and growth inhibition in comparison to untreated samples 3 days after infestation. Control of Spodoptera littoralis by a test sample is given when at least one of the categories mortality, anti-feedant effect, and growth inhibition is higher than the untreated sample.

Series [10] relates to Tetranychus urticae (Two-Spotted Spider Mite). Description: Example B10: Tetranychus urticae feeding/contact activity, bean leaf discs. It is filed as in vivo. Conditions: foliar, 192 h, application rate of 200 ppm, mixed population (mobile stages), 8 days after infestation. The method, then: Bean leaf discs on agar in 24-well microtiter plates were sprayed with aqueous test solutions prepared from 10,000 ppm DMSO stock solutions. After drying the leaf discs were infested with a mite population of mixed ages. The samples were assessed for mortality on mixed population (mobile stages) 8 days after infestation.

In series [11] the test system is Frankliniella occidentalis (Western Flower Thrips). The series is described as follows: Example B23: Frankliniella occidentalis, mixed population, systemic into soil (drench), French bean plants. It is filed as in vivo. The settings on record: Concentration 3 ppm, FRANOC (drench). The method, then: French bean plants cultivated in field soil, were treated via drench application and 1 day after treatment they were infested with mixed aged thrips population. 8 days after infestation samples were assessed for mortality and phytotoxicity symptoms.

Series [12] shares this test system. The series is described as follows: Example B22: Frankliniella occidentalis, mixed population, contact/feeding, French bean plants. It is filed as in vivo. Conditions: Concentration 50 ppm, FRANOC (contact). The method, then: French bean plants were treated with diluted test solutions in a spray chamber. After drying plants were infested with a mixed aged thrips population. 7 days after infestation, samples were assessed for mortality.

Series [13] concerns Nilaparvata lugens (Brown Plant Hopper). The series is described as follows: Example B21: Nilaparvata lugens, larvicide, feeding/contact, rice plants. The class given is in vivo. Conditions: Concentration 3 ppm, NILALU (contact). The method, then:
Rice plants were treated with the diluted test solutions in a spray chamber. After drying plants were infested with ˜20 N3 nymphs. 7 days after the treatment samples were assessed for mortality and growth regulation.

In series [14] the test system is Myzus persicae (Green peach aphid). The series is described as follows: Example B20: Myzus persicae, mixed population, systemic into soil (drench), pea seedlings. It is filed as in vivo. The settings on record: Concentration 0.2 ppm, MYZUPE (drench). As for the experimental part: Pea seedlings cultivated in field soil and infested 1 day before treatment with mixed aged aphid population were treated as drench application and checked for mortality 7 days after treatment.

The test system is the same in series [15]. The series is described as follows: Example B19: Myzus persicae, mixed population, contact/feeding, pepper plants. It is filed as in vivo. The settings on record: Concentration 3 ppm, MYZUPE (contact). As for the experimental part:
Pepper plants were infested with mixed aged aphid population and were treated 1 day after infestation with diluted test solutions in a spray chamber. 5 days after treatment samples were assessed for mortality.

For `CCSc1cc(NC(=O)C2CC2)cnc1-c1nc2cc(C(F)(F)F)ncc2n1C` [P1, N-[5-ethylsulfanyl-6-[3-methyl-6-(trifluoromethyl)imidazo[4,5-c]pyridin-2-yl]-3-pyridyl]cyclopropanecarboxamide], the mortality at 200 ppm in series [1] and in series [2] was at least 80% throughout. Further, the percent effect (mortality or growth inhibition) at 200 ppm in series [3] was at least 80%.

On to `CCS(=O)(=O)c1cc(NC(=O)C(F)(F)F)ccc1-c1nc2cc(C(F)(F)F)ncc2n1C` [P3, N-[3-ethylsulfonyl-4-[3-methyl-6-(trifluoromethyl)imidazo[4,5-c]pyridin-2-yl]phenyl]-2,2,2-trifluoro-acetamide], for which the melting point amounted to 260 °C.

On to `CCSc1cc(NC(=O)C(C)(C)O)cnc1-c1nc2cc(C(F)(F)F)ncc2n1C` [P7, N-[5-ethylsulfanyl-6-[3-methyl-6-(trifluoromethyl)imidazo[4,5-c]pyridin-2-yl]-3-pyridyl]-2-hydroxy-2-methyl-propanamide], for which the melting point fell in the range of 195 to 196 °C.

As to `CCS(=O)(=O)c1cc(N2CCSCC2=O)cnc1-c1nc2cc(C(F)(F)F)ncc2n1C` [P19, 4-[5-ethyslulfonyl-6-[3-methyl-6-(trifluoromethyl)imidazo[4,5-c]pyridin-2-yl]-3-pyridyl]thiomorpholin-3-one], the melting point was in the range of 211 to 213 °C. Besides, the pest or weed control at 200 ppm in the series on Melodoigyne incognita was at least 80%.

In the case of `CCS(=O)(=O)c1cc(N(C)C(=O)C(C)C)cnc1-c1nc2cc(C(F)(F)F)ncc2n1C` [P27, N-[5-ethylsulfonyl-6-[3-methyl-6-(trifluoromethyl)imidazo[4,5-c]pyridin-2-yl]-3-pyridyl]-N,2-dimethyl-propanamide], the mortality at 200 ppm in series [4] and in series [5] was at least 80% throughout. In addition, the percent effect (mortality or growth inhibition) at 200 ppm in series [6] and in series [8] was at least 80% throughout. Besides, the pest or weed control at 200 ppm in the series with Melodoigyne incognita is at least 80%. The mortality at 24 ppm in series [7] was at least 80%.

As for `CCS(=O)(=O)c1cc(N2CCSC2=O)cnc1-c1nc2cc(C(F)(F)F)ncc2n1C` [P45, 3-[5-ethylsulfonyl-6-[3-methyl-6-(trifluoromethyl)imidazo[4,5-c]pyridin-2-yl]-3-pyridyl]thiazolidin-2-one], the mortality at 200 ppm in series [4], in series [5] and in series [10] was at least 80% throughout. For the same compound, the mortality at 12.5 ppm in series [5] was 80%. For the same compound, the percent control (mortality, anti-feedant effect or growth inhibition) at 200 ppm in series [9] was at least 80%. The mortality at 50 ppm in series [6] stood at 100%. Also, the percent effect (mortality or growth inhibition) at 200 ppm in [6], in [3] and in series [8] was at least 80% in each case. Moreover, the pest or weed control at 200 ppm in the series on Melodoigyne incognita is at least 80%. Also, the mortality at 1.5 ppm in [7] was 50%. For the same compound, the mortality at 24 ppm in series [7] is at least 80%.

Turning to `CCS(=O)(=O)c1cc(N(C)C(=O)CSC)cnc1-c1nc2cc(C(F)(F)F)ncc2n1C` [P14, N-[5-ethylsulfonyl-6-[3-methyl-6-(trifluoromethyl)imidazo[4,5-c]pyridin-2-yl]-3-pyridyl]-N-methyl-2-methylsulfanyl-acetamide], the mortality at 200 ppm in [4] and in series [5] was at least 80% throughout. The percent control (mortality, anti-feedant effect or growth inhibition) at 200 ppm in series [9] was at least 80%. Further, the percent effect (mortality or growth inhibition) at 200 ppm in series [6] and in [3] was at least 80% throughout. In addition, the pest or weed control at 200 ppm in the series with Melodoigyne incognita was at least 80%. Further, in series [7], the mortality at 24 ppm is at least 80%.

`CCS(=O)(=O)c1ccc(N(C)C(C)=O)nc1-c1nc2cc(C(F)(F)F)ncc2n1C` [reference compound]: the mortality at 3 ppm in [11] stood at 35%; in series [13], 30%; in series [15], 20%. For the same compound, in series [12], the mortality at 50 ppm was determined as 0%. Also, in series [14], the mortality at 0.2 ppm is 50%.

Take `CCS(=O)(=O)c1cc(NC(=O)C2CC2)cnc1-c1nc2cc(C(F)(F)F)ncc2n1C` [P2, N-[5-ethylsulfonyl-6-[3-methyl-6-(trifluoromethyl)imidazo[4,5-c]pyridin-2-yl]-3-pyridyl]cyclopropanecarboxamide]: the mortality at 200 ppm in series [5], in series [1] and in series [2] was at least 80% in each case. Further, the percent effect (mortality or growth inhibition) at 200 ppm in series [6], in [3] and in series [8] was at least 80% throughout. Further, in series [7], the mortality at 1.5 ppm was 80%. For the same compound, the mortality at 24 ppm in series [7] was at least 80%.

On to `CCN(C(C)=O)c1cnc(-c2nc3cc(C(F)(F)F)ncc3n2C)c(S(=O)(=O)CC)c1` [P21, N-ethyl-N-[5-ethylsulfonyl-6-[3-methyl-6-(trifluoromethyl)imidazo[4,5-c]pyridin-2-yl]-3-pyridyl]acetamide], for which the mortality at 200 ppm in [5], in [1] and in [10] was at least 80% throughout. In series [5], the mortality at 12.5 ppm was 100%. For the same compound, the mortality at 50 ppm in [6] is 100%. The percent effect (mortality or growth inhibition) at 200 ppm in series [6] and in series [3] was at least 80% each time. Besides, the pest or weed control at 200 ppm with Melodoigyne incognita is at least 80%. Further, in [7], the mortality at 1.5 ppm stood at 100%. The mortality at 24 ppm in [7] was at least 80%.

These data come from patent publication US20210047291A1, “PESTICIDALLY ACTIVE HETEROCYCLIC DERIVATIVES WITH SULFUR CONTAINING SUBSTITUENTS” (SYNGENTA PARTICIPATIONS AG, priority 2018, published 2021).
